Laboratory results published in article PMC10233829 (ACS Omega, 2023).
≈ marks a conversion by molar mass, not a printed value. Where “and” joins values, the source holds several entries; their conditions need not be identical. Identical values can stand only once. Like-named read-outs stand apart in the source and are kept apart here.

Key:
[1] = target: S. aureus DNA gyrase (Staphylococcus aureus, UniProt P0A0K8+P20831); assay: biochemical; conditions: supercoiling of relaxed pBR322
Method: The enzymatic assay was carried using commercial topoisomerases type II as previously described by Alt et al.[55] with some modifications.
Briefly, 1 U of the enzyme (gyrase or topo IV, Inspiralis. Norwich, UK) isolated from S. aureus converts […] of relaxed pBR322 DNA to the supercoiled form (gyrase) or decatenates 200 ng of kinetoplast DNA (topo IV). […] The reactions were terminated by adding an equal volume of STEB buffer (40% sucrose, 100 mM Tris–HCl pH 8, 10 mM EDTA, and 0.5 mg/mL bromophenol blue), followed by extraction with 1 volume of chloroform/isoamyl alcohol (24:1). The samples were vortexed and centrifuged, and 20 μL of the aqueous phase of each sample was loaded onto a 1% agarose gel and left for 30 min prior to electrophoresis to allow diffusion of salt. […] Gels were stained with ethidium bromide and visualized under UV light in a transilluminator (ChemiDoc MP, Bio Rad).

[2] = tested on: P. aeruginosa ATCC 15442 and E. coli ATCC 25922; assay: MIC, standard Gram-negative rods as a panel; format: cell-based; conditions: P. aeruginosa ATCC 15442, E. coli ATCC 25922; for MIC: read-out: MIC against standard Gram-negative rods (range over strains)
[3] = target: T1, S. aureus topoisomerase IV (Staphylococcus aureus, UniProt P0C1S7+P0C1U9); assay: Topoisomerase IV decatenation assay; format: biochemical; conditions: decatenation of kinetoplast DNA; read-out: IC50 S. aureus topoisomerase IV (converted)
T1 construct: purchased Inspiralis, Norwich, UK
Method: Briefly, 1 U of the enzyme (gyrase or topo IV, Inspiralis. Norwich, UK) isolated from S. aureus converts 0.5 mg of relaxed pBR322 DNA to the supercoiled form (gyrase) or decatenates 200 ng of kinetoplast DNA (topo IV). […] The reactions were terminated by adding an equal volume of STEB buffer (40% sucrose, 100 mM Tris–HCl pH 8, 10 mM EDTA, and 0.5 mg/mL bromophenol blue), followed by extraction with 1 volume of chloroform/isoamyl alcohol (24:1). The samples were vortexed and centrifuged, and 20 μL of the aqueous phase of each sample was loaded onto a 1% agarose gel and left for 30 min prior to electrophoresis to allow diffusion of salt. […] Gels were stained with ethidium bromide and visualized under UV light in a transilluminator (ChemiDoc MP, Bio Rad).

[4] = tested on: Staphylococci (standard strains); assay: MIC, standard Gram-positive strains as a panel; format: cell-based, S. aureus, S. epidermidis; conditions: for MIC: read-out: MIC toward standard Staphylococci (range over strains)
[5] = tested on: IL-6 level in PC3 cells; assay: Interleukin-6 ELISA; format: cell-based, human; conditions: PC3, IC50 concentration, 72 h
Method: (§1) The level of interleukin-6 (IL-6) in PC3 and HaCaT cell lines was measured by commercial human IL-6 ELISA kits Diaclon SAS (Besancon Cedex, France). […] The untreated cells were used as the control. The IL-6 level in a cell culture supernatant was measured using an enzyme-linked immunosorbent assay in accordance with the manufacturer’s instruction. The experiment was repeated three times.

[6] = tested on: IL-6 level in HaCaT cells; assay: Interleukin-6 ELISA; format: cell-based, human; conditions: IC50 concentration, 72 h
Method: as §1

[7] = tested on: PC3 cells; assay: Trypan blue exclusion assay; format: cell-based, human; conditions: for Cell number (% of control) / Cell number x 10^6 / Viability (%): PC3, 72 h, compound at IC50
Description: (§2) To monitor cell proliferation in response to long-term conjugate treatment, the trypan-blue exclusion assay was further performed. […] Thus, they exerted a cytostatic effect on them, suppressing their growth and proliferation. […]. […] […].
(§3) Figure 9 Trypan blue assay. The effect of compounds 3, 15, and 21 on cell number in PC3 and HaCaT cells. […] Data are expressed as the mean ± SD. ***p ≤ 0.001, **p ≤ 0.002, and *p ≤ 0.01, as compared to the control.
(§4) Figure 10 Trypan blue assay. The effect of compounds 3, 15, and 21 on viability in PC3 and HaCaT cells. […] Data are expressed as the mean ± SD. ***p ≤ 0.001, **p ≤ 0.01, and *p ≤ 0.05, as compared to the control.

[8] = Trypan blue exclusion assay; format: cell-based, human; conditions: human; HaCaT, 72 h, compound at IC50
Description: as §2, §3, §4

[9] = tested on: HaCaT cells; assay: Trypan blue exclusion assay; format: cell-based, human; conditions: for Cell number (% of control) / Cell number x 10^6: 72 h, compound at IC50; for impact on the number of live human keratinocytes: compounds at their IC50 for PC3 cells (2.02, 15.7, 4.8 μM)
Description: as §2, §3, §4

[10] = tested on: M. tuberculosis Spec 210; assay: microbe, parasite or virus in culture; format: cell-based, Mycobacterium tuberculosis
[11] = tested on: PC3 cells; assay: Annexin V-FITC/PI binding assay, flow cytometry; format: cell-based, human; conditions: IC50 concentration; for PC3 cells in late apoptosis or necrosis: 72 h; for Dead cells / Early apoptosis / Late apoptosis / Live cells: PC3, 72 h
Method: (§5) The PC3 and HaCaT cells were cultured and harvested under the conditions mentioned in the Cell Culture section and seeded in 12-well plates (1 × 10^5 cells per well). […] The apoptotic effect was performed using the annexin V-FITC/propidium iodide (PI) apoptosis assay kit (Becton Dickinson, Pharmingen) according to the manufacturer’s instructions and analyzed by flow cytometry (Becton Dickinson). The cells which were annexin V-FITC-positive and PI-negative were identified as early apoptotic and both annexin V-FITC- and PI-positive as late apoptotic or necrotic. The experiment was repeated three times.

[12] = tested on: HaCaT cells; assay: Annexin V-FITC/PI binding assay, flow cytometry; format: cell-based, human; conditions: 72 h, IC50 concentration; for Dead cells / Early apoptosis / Late apoptosis / Live cells: HaCaT
Method: as §5

[13] = tested on: E. coli ATCC 25922; assay: Bacterial growth curve assay (OD600, 18 h); format: cell-based, Escherichia coli; conditions: for lag phase elongated to: E. coli, 0.006 μg/mL
[14] = tested on: P. aeruginosa ATCC 15442; assay: Bacterial growth curve assay (OD600, 18 h); format: cell-based, Pseudomonas aeruginosa; conditions: for dose that fully inhibited bacterial growth: P. aeruginosa ATCC 15442, 18 h; for exponential phase shifted to: P. aeruginosa
[15] = tested on: E. coli ATCC 25922 biofilm; assay: Biofilm eradication assay (crystal violet); format: cell-based, Escherichia coli; conditions: 4 MIC
Method: (§6) Three bacterial strains E. coli ATCC 25922, P. aeruginosa ATCC 15442, and S. aureus ATCC 6538 were used to assign biofilm eradication properties of compounds 5, 10, 11, and CP as the reference drug. To quantify the biomass of the bacteria biofilm, the crystal violet method was used with some modifications.[52] The bacteria were incubated to the mid-log phase, diluted to 103 cfu/mL in brain–heart infusion medium, and seeded in a 96-well plate. Bacterial biofilms were formed by overnight incubation at 37 °C with rotation at 140 rpm. After biofilm formation, all wells were washed with PBS to remove nonadherent bacteria cells. […] The biofilms with tested substances were incubated for 20 h at 37 °C with shaking at 140 rpm. The bacterial biofilm was stained with 0.1% (v/v) CV for 10 min. Afterward, the biofilm was rinsed with PBS and dried. To solubilize the adsorbed crystal violet, wells with stained biofilms were incubated in 30% acetic acid. To estimate the total biofilm biomass, optical density (OD) of the resulting solution was measured at 595 nm. Biofilm assays were repeated at least three times on different days, with two technical replicates assessed each time. A minimum eradication concentration (MBEC) was determined as the lowest concentration of compound, which could damage ≥50% of the formed biofilm structure.

[16] = tested on: S. aureus ATCC 6538 biofilm; assay: Biofilm eradication assay (crystal violet); format: cell-based, Staphylococcus aureus; conditions: 4–2 MIC
Method: as §6

[17] = standard Gram-positive strains of Table 1

T1 sequence (P0C1U9 whole entry): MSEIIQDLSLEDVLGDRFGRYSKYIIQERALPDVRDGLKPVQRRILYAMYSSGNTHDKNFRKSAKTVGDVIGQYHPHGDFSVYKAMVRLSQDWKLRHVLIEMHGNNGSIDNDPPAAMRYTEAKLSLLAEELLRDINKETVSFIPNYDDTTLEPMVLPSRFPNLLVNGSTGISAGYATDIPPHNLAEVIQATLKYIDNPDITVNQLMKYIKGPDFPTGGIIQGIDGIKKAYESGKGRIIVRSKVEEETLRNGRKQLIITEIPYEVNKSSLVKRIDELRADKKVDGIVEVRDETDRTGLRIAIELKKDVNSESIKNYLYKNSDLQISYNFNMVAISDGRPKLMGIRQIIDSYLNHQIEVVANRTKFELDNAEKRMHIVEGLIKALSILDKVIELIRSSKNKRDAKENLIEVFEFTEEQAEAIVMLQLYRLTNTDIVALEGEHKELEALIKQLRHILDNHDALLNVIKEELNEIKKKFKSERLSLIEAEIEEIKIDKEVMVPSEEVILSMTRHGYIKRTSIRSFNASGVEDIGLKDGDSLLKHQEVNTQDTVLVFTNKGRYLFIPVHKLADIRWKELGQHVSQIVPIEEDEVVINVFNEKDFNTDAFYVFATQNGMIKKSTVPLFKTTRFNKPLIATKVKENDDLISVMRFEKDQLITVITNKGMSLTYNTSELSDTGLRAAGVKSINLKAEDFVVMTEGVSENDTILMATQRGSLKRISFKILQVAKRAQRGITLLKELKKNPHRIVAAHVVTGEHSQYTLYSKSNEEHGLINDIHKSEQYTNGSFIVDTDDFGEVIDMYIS
T1 sequence (P0C1S7 whole entry): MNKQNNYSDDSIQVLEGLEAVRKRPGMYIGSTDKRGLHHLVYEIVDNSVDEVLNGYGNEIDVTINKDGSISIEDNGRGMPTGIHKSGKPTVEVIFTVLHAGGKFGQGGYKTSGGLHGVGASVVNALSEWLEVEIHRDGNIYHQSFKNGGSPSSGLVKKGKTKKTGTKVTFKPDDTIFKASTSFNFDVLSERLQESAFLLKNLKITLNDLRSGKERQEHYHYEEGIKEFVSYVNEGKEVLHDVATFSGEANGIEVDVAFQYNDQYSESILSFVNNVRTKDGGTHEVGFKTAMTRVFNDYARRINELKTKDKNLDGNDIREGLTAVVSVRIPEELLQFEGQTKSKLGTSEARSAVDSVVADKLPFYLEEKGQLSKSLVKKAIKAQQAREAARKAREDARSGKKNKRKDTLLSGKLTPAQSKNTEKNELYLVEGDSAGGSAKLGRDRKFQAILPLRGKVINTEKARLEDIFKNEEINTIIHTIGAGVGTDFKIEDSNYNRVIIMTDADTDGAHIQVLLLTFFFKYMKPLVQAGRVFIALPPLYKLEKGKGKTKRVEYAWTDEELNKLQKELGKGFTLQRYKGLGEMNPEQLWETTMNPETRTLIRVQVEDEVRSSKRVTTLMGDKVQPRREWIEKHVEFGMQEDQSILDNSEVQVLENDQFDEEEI
S. aureus DNA gyrase, sequence (P0A0K8 whole entry): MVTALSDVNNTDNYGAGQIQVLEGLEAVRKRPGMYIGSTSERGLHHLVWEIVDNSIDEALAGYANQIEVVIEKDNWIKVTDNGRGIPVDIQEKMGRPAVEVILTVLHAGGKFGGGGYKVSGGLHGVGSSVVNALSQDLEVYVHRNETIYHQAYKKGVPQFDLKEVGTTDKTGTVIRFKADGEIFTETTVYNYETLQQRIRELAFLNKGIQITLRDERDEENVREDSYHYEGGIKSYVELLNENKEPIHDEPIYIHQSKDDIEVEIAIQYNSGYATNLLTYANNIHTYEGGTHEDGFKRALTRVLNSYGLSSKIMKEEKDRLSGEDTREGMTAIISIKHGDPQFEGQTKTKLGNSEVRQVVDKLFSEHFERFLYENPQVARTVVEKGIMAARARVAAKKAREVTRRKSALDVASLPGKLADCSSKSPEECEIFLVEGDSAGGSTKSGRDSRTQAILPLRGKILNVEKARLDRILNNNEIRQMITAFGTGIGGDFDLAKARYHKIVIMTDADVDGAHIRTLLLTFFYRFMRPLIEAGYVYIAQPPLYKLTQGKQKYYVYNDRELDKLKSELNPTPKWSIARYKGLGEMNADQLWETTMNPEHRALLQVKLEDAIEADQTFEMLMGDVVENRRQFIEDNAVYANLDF
S. aureus DNA gyrase, sequence (P20831 whole entry): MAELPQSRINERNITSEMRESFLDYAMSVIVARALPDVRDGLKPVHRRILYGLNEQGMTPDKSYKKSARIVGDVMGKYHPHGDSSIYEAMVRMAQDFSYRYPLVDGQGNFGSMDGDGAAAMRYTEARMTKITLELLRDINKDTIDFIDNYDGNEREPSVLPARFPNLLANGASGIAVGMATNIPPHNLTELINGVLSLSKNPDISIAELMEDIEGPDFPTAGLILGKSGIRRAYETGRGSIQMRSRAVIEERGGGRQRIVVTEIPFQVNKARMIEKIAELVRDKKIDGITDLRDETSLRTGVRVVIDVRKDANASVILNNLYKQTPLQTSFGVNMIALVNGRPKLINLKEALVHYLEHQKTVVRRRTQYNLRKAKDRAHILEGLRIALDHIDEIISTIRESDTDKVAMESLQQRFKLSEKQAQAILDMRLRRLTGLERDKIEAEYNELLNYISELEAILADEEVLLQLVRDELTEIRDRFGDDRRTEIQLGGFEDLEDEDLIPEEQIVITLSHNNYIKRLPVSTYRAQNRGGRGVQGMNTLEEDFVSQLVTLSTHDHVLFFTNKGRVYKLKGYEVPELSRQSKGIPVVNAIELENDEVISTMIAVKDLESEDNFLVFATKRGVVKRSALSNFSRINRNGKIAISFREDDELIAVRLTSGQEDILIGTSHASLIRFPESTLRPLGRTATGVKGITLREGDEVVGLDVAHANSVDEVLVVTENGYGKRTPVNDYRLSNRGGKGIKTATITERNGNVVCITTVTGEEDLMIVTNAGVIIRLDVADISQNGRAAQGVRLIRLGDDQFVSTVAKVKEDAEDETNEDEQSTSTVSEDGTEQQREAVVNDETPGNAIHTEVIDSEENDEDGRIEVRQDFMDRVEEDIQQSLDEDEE

Structure (SMILES) | IC50 [1] [µM] | share of CP potency kept against standard Gram-negative rods [2] | MIC [2] [µg/mL] | IC50 [3] [µM] | effect on IL-6 in human keratinocytes [6] | Cell number (% of control) [7] | Cell number x 10^6 [7] | Viability (%) [7] [%] | viability at 72 h [8] [%] | Cell number (% of control) [9] | Cell number x 10^6 [9] | impact on the number of live human keratinocytes [9] | PC3 cells in late apoptosis or necrosis [11] [%] | Dead cells [11] [%] | Early apoptosis [11] | Late apoptosis [11] [%] | Live cells [11] [%] | HaCaT cells in late apoptosis/necrosis [12] | Dead cells [12] [%] | Early apoptosis [12] [%] | also measured
O=C(O)c1cn(C2CC2)c2cc(N3CCN(C(=O)C4CC4)CC3)c(F)cc2c1=O [Compound 2, 7-(4-Cyclopropanecarbonyl-piperazin-1-yl)-1-cyclopropyl-6-fluoro-4-oxo-1,4-dihydro-quinoline-3-carboxylic Acid] | 22.3 | 30–60% | 0.025 to 0.2 (≈ 0.0626 to 0.501 µM) | 23.8 |  |  |  |  |  |  |  |  |  |  |  |  |  |  |  |  | MIC [4]: 0.05 to 0.4 µg/mL (≈ 0.125 to 1 µM); fold more active than CP toward standard Staphylococci [4, 17]: 1.25–10 fold
O=C(O)c1cn(C2CC2)c2cc(N3CCN(C(=O)CCl)CC3)c(F)cc2c1=O [Compound 3, 7-[4-(2-Chloroacetyl)-piperazin-1-yl]-1-cyclopropyl-6-fluoro-4-oxo-1,4-dihydro-quinoline-3-carboxylic Acid] | 61.3 |  | ≤ 1 | 78.5 | stimulated human keratinocytes to produce IL-6 | 1.97 % of control | 0.04 ± 0.01 x 10^6 | 52 ± 2.40 | 75 ± 2.23 | 12.15 % of control | 0.2 ± 0.01 x 10^6 | negligible impact | 78.22 | 66.10 ± 6.31 | 1.51 ± 0.04% | 12.12 ± 2.18 | 20.27 ± 0.45 | 47.23% | 9.99 ± 1.17 | 10.07 ± 1.22 | decrease of IL-6 release as compared to the control [5]: 3.5 times; decrease of PC3 cell viability ([7]; 72 h, IC50 concentration): 48%; fold more effective than the reference tuberculostatics ([10]; M. tuberculosis Spec. 210): 8–32 fold; Late apoptosis [12]: 37.24 ± 2.27%; Live cells [12]: 42.70 ± 2.81%
O=C(O)c1cn(C2CC2)c2cc(N3CCN(C(=O)CCCCl)CC3)c(F)cc2c1=O [Compound 5, 7-[4-(4-Chlorobutyryl)-piperazin-1-yl]-1-cyclopropyl-6-fluoro-4-oxo-1,4-dihydro-quinoline-3-carboxylic Acid] | 7.34 | 30–60% | 0.025 to 0.2 (≈ 0.0574 to 0.459 µM) | 6.19 |  |  |  |  |  |  |  |  |  |  |  |  |  |  |  |  | lag phase elongated to [13]: 6 h; dose that fully inhibited bacterial growth [14]: ≥ 0.2 µg/mL; exponential phase shifted to ([14]; 0.03 μg/mL): 7 to 12 h; exponential phase shifted to ([14]; 0.05 μg/mL): 8 to 15 h; eradication of the biofilm formed by E. coli [15]: approx. 20%
O=C(O)c1cn(C2CC2)c2cc(N3CCN(C(=O)CCCBr)CC3)c(F)cc2c1=O [Compound 10, 7-[4-(4-Bromobutyryl)-piperazin-1-yl]-1-cyclopropyl-6-fluoro-4-oxo-1,4-dihydro-quinoline-3-carboxylic Acid] | 16.4 | 60% | 0.025 to 0.1 (≈ 0.052 to 0.208 µM) | 10.4 |  |  |  |  |  |  |  |  |  |  |  |  |  |  |  |  | lag phase elongated to [13]: 9 h; dose that fully inhibited bacterial growth [14]: ≥ 0.2 µg/mL
O=C(O)c1cn(C2CC2)c2cc(N3CCN(C(=O)CCCCBr)CC3)c(F)cc2c1=O [Compound 11, 7-[4-(5-Bromopentanoyl)-piperazin-1-yl]-1-cyclopropyl-6-fluoro-4-oxo-1,4-dihydro-quinoline-3-carboxylic Acid] | 16.2 | 60% | 0.025 to 0.1 (≈ 0.0506 to 0.202 µM) | 12.1 |  |  |  |  |  |  |  |  |  |  |  |  |  |  |  |  | concentration that inhibited bacterial cell growth ([13]; E. coli ATCC 25922, 18 h): ≥ 0.025 µg/mL; elimination of the mature biofilm of S. aureus ATCC 6538 [16]: 19–25%; dose that fully inhibited bacterial growth [14]: ≥ 0.2 µg/mL; fold more active than CP toward standard Staphylococci [4, 17]: 1.25–2.5 fold; eradication of the biofilm formed by E. coli [15]: approx. 20%
O=C(O)c1cn(C2CC2)c2cc(N3CCN(C(=O)CCC(F)(F)F)CC3)c(F)cc2c1=O [Compound 15, 7-[4-(4,4,4-Trifluorobutyryl)-piperazin-1-yl]-1-cyclopropyl-6-fluoro-4-oxo-1,4-dihydro-quinoline-3-carboxylic Acid] |  |  |  |  | No significant pro- or anti-inflammatory properties | 12.04 % of control | 0.3 ± 0.08 x 10^6 | 82 ± 2.64 | 90 ± 3.04 | 48.38 % of control | 0.8 ± 0.10 x 10^6 | negligible impact | 37.64 | 21.15 ± 3.29 | 1.15 ± 0.10% | 16.49 ± 2.65 | 61.21 ± 2.06 | did not indicate appreciable apoptosis-inducing action | 0.3 ± 0.01 | 11.63 ± 2.93 | decrease of IL-6 release as compared to the control [5]: 1.9 times; Late apoptosis [12]: 0.77 ± 0.05%; Live cells [12]: 87.32 ± 2.20%; MIC [4, 17]: 0.2 µg/mL (≈ 0.439 µM)
O=C(O)c1cn(C2CC2)c2cc(N3CCN(CCCCCCCCCCC(=O)N4CCN(c5cc6c(cc5F)c(=O)c(C(=O)O)cn6C5CC5)CC4)CC3)c(F)cc2c1=O [Compound 21, CP–Undecanoyl–CP Dimer] |  |  |  |  | stimulated human keratinocytes to produce IL-6 | 6.22 % of control | 0.2 ± 0.03 x 10^6 | 78 ± 1.50 | 94 ± 4.01 | 19.35 % of control | 0.3 ± 0.01 x 10^6 | negligible impact | 69.29 | 52.91 ± 3.99 | 28.22 ± 0.98% and 28.22% | 16.28 ± 2.80 | 2.59 ± 0.20 | 34.95% | 14.24 ± 3.78 | 10.52 ± 1.07 | fold more effective than the reference tuberculostatics [10]: 8–32 fold; Late apoptosis [12]: 20.71 ± 4.34%; Live cells [12]: 54.53 ± 3.34%
